In patent US9179678B2, “Substituted [1,2,4]triazoles and substituted tetrazoles as herbicides” (SYNGENTA LIMITED, priority 2012, dated 2015):

Assays:
Type in all cases: in vivo
[1] = test system: Alopecurus myosuroides (ALOMY); assay: Post-emergence glasshouse herbicide test; settings: POST Application, 1000 g/h, after 13 days
Method: (§1) Seeds of a variety of test species are sown in standard soil in pots (Alopecurus myosuroides (ALOMY), Setaria faberi (SETFA), Echinochloa crus-galli (ECHCG), Solanum nigrum (SOLNI), Amaranthus retoflexus (AMARE), Ipomoea hederacea (IPOHE)). After cultivation for one day (pre-emergence) or after 8 days cultivation (post-emergence) under controlled conditions in a glasshouse (at 24/16° C., day/night; 14 hours light; 65% humidity), the plants are sprayed with an aqueous spray solution derived from the formulation of the technical active ingredient in acetone/water (50:50) solution containing 0.5% Tween 20 (polyoxyethelyene sorbitan monolaurate, CAS RN 9005-64-5). Compounds ae applied at 1000 g/h. The test plants are then grown in a glasshouse under controlled conditions in a glasshouse (at 24/16° C., day/night; 14 hours light; 65% humidity) and watered twice daily. After 13 days for pre and post-emergence, the test is evaluated for the percentage damage caused to the plant. The biological activities are shown in the following table on a five point scale (5=80-100%; 4=60-79%; 3=40-59%; 2=20-39%; 1=0-19%).

[2] = test system: Amaranthus retoflexus (AMARE); assay: Post-emergence glasshouse herbicide test; settings: POST Application, 1000 g/h, after 13 days
Method: as §1

[3] = test system: Echinochloa crus-galli (ECHCG); assay: Post-emergence glasshouse herbicide test; settings: POST Application, 1000 g/h, after 13 days
Method: as §1

[4] = test system: Ipomoea hederacea (IPOHE); assay: Post-emergence glasshouse herbicide test; settings: POST Application, 1000 g/h, after 13 days
Method: as §1

[5] = test system: Solanum nigrum (SOLNI); assay: Post-emergence glasshouse herbicide test; settings: POST Application, 1000 g/h, after 13 days
Method: as §1

[6] = test system: Setaria faberi (SETFA); assay: Post-emergence glasshouse herbicide test; settings: POST Application, 1000 g/h, after 13 days
Method: as §1, with “Compounds ae applied at 1000 g/h.” left out

[7] = test system: Alopecurus myosuroides (ALOMY); assay: Pre-emergence glasshouse herbicide test; settings: PRE Application, 1000 g/h, after 13 days
Method: as §1

[8] = test system: Amaranthus retoflexus (AMARE); assay: Pre-emergence glasshouse herbicide test; settings: PRE Application, 1000 g/h, after 13 days
Method: as §1

[9] = test system: Echinochloa crus-galli (ECHCG); assay: Pre-emergence glasshouse herbicide test; settings: PRE Application, 1000 g/h, after 13 days
Method: as §1

[10] = test system: Ipomoea hederacea (IPOHE); assay: Pre-emergence glasshouse herbicide test; settings: PRE Application, 1000 g/h, after 13 days
Method: as §1

[11] = test system: Setaria faberi (SETFA); assay: Pre-emergence glasshouse herbicide test; settings: PRE Application, 1000 g/h, after 13 days
Method: as §1

[12] = test system: Solanum nigrum (SOLNI); assay: Pre-emergence glasshouse herbicide test; settings: PRE Application, 1000 g/h, after 13 days
Method: as §1

Compound: Cn1nnnc1NC(=O)c1nc2ccccc2n(-c2ccc(I)cc2)c1=O [Compound 5.042]
- percentage damage caused to the plant, ALOMY [1]: 2 (2=20-39%)
- percentage damage caused to the plant, AMARE [2]: 5 (5=80-100%)
- percentage damage caused to the plant, ECHCG [3]: 3 (3=40-59%)
- percentage damage caused to the plant, IPOHE [4]: 5 (5=80-100%)
- percentage damage caused to the plant, SOLNI [5]: 5 (5=80-100%)
- percentage damage caused to the plant, SETFA [6]: 5 (5=80-100%)
- percentage damage caused to the plant, ALOMY [7]: 2 (2=20-39%)
- percentage damage caused to the plant, AMARE [8]: 5 (5=80-100%)
- percentage damage caused to the plant, ECHCG [9]: 3 (3=40-59%)
- percentage damage caused to the plant, IPOHE [10]: 5 (5=80-100%)
- percentage damage caused to the plant, SETFA [11]: 2 (2=20-39%)
- percentage damage caused to the plant, SOLNI [12]: 5 (5=80-100%)

Compound: Cn1nnnc1NC(=O)c1nc2ccccc2n(-c2ccc3ccccc3c2)c1=O [Compound 5.031]
- percentage damage caused to the plant, ALOMY [1]: 1 (1=0-19%)
- percentage damage caused to the plant, AMARE [2]: 5 (5=80-100%)
- percentage damage caused to the plant, ECHCG [3]: 1 (1=0-19%)
- percentage damage caused to the plant, IPOHE [4]: 3 (3=40-59%)
- percentage damage caused to the plant, SOLNI [5]: 5 (5=80-100%)
- percentage damage caused to the plant, SETFA [6]: 1 (1=0-19%)
- percentage damage caused to the plant, ALOMY [7]: 1 (1=0-19%)
- percentage damage caused to the plant, AMARE [8]: 5 (5=80-100%)
- percentage damage caused to the plant, ECHCG [9]: 1 (1=0-19%)
- percentage damage caused to the plant, IPOHE [10]: 1 (1=0-19%)
- percentage damage caused to the plant, SETFA [11]: 1 (1=0-19%)
- percentage damage caused to the plant, SOLNI [12]: 5 (5=80-100%)

Compound: Cn1nnnc1NC(=O)c1nc2ccccc2n(-c2ccc(C(F)(F)F)cc2)c1=O [Compound 5.019]
- percentage damage caused to the plant, ALOMY [1]: 3 (3=40-59%)
- percentage damage caused to the plant, AMARE [2]: 5 (5=80-100%)
- percentage damage caused to the plant, ECHCG [3]: 5 (5=80-100%)
- percentage damage caused to the plant, IPOHE [4]: 5 (5=80-100%)
- percentage damage caused to the plant, SOLNI [5]: 5 (5=80-100%)
- percentage damage caused to the plant, SETFA [6]: 5 (5=80-100%)
- percentage damage caused to the plant, ALOMY [7]: 4 (4=60-79%)
- percentage damage caused to the plant, AMARE [8]: 5 (5=80-100%)
- percentage damage caused to the plant, ECHCG [9]: 5 (5=80-100%)
- percentage damage caused to the plant, IPOHE [10]: 5 (5=80-100%)
- percentage damage caused to the plant, SETFA [11]: 5 (5=80-100%)
- percentage damage caused to the plant, SOLNI [12]: 5 (5=80-100%)

Compound: Cn1nnnc1NC(=O)c1nc2ccccc2n(-c2cccc(Cl)c2)c1=O [Compound 5.016]
- percentage damage caused to the plant, ALOMY [1]: 5 (5=80-100%)
- percentage damage caused to the plant, AMARE [2]: 5 (5=80-100%)
- percentage damage caused to the plant, ECHCG [3]: 5 (5=80-100%)
- percentage damage caused to the plant, IPOHE [4]: 5 (5=80-100%)
- percentage damage caused to the plant, SOLNI [5]: 5 (5=80-100%)
- percentage damage caused to the plant, SETFA [6]: 5 (5=80-100%)
- percentage damage caused to the plant, ALOMY [7]: 4 (4=60-79%)
- percentage damage caused to the plant, AMARE [8]: 5 (5=80-100%)
- percentage damage caused to the plant, ECHCG [9]: 5 (5=80-100%)
- percentage damage caused to the plant, IPOHE [10]: 5 (5=80-100%)
- percentage damage caused to the plant, SETFA [11]: 5 (5=80-100%)
- percentage damage caused to the plant, SOLNI [12]: 5 (5=80-100%)

Compound: Cc1ccc(-n2c(=O)c(C(=O)Nc3nnnn3C)nc3ccccc32)cc1 [Compound 5.012]
- percentage damage caused to the plant, ALOMY [1]: 2 (2=20-39%)
- percentage damage caused to the plant, AMARE [2]: 5 (5=80-100%)
- percentage damage caused to the plant, ECHCG [3]: 5 (5=80-100%)
- percentage damage caused to the plant, IPOHE [4]: 5 (5=80-100%)
- percentage damage caused to the plant, SOLNI [5]: 5 (5=80-100%)
- percentage damage caused to the plant, SETFA [6]: 4 (4=60-79%)
- percentage damage caused to the plant, ALOMY [7]: 2 (2=20-39%)
- percentage damage caused to the plant, AMARE [8]: 5 (5=80-100%)
- percentage damage caused to the plant, ECHCG [9]: 5 (5=80-100%)
- percentage damage caused to the plant, IPOHE [10]: 5 (5=80-100%)
- percentage damage caused to the plant, SETFA [11]: 3 (3=40-59%)
- percentage damage caused to the plant, SOLNI [12]: 5 (5=80-100%)

Compound: C=Cc1cccc(-n2c(=O)c(C(=O)Nc3nnnn3C)nc3ccccc32)c1 [Compound 5.027]
- percentage damage caused to the plant, ALOMY [1]: 5 (5=80-100%)
- percentage damage caused to the plant, AMARE [2]: 5 (5=80-100%)
- percentage damage caused to the plant, ECHCG [3]: 5 (5=80-100%)
- percentage damage caused to the plant, IPOHE [4]: 5 (5=80-100%)
- percentage damage caused to the plant, SOLNI [5]: 5 (5=80-100%)
- percentage damage caused to the plant, SETFA [6]: 5 (5=80-100%)
- percentage damage caused to the plant, ALOMY [7]: 5 (5=80-100%)
- percentage damage caused to the plant, AMARE [8]: 5 (5=80-100%)
- percentage damage caused to the plant, ECHCG [9]: 5 (5=80-100%)
- percentage damage caused to the plant, IPOHE [10]: 5 (5=80-100%)
- percentage damage caused to the plant, SETFA [11]: 5 (5=80-100%)
- percentage damage caused to the plant, SOLNI [12]: 5 (5=80-100%)
